In PubChem BioAssay (NCI):
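Growth conditions: 96-well plates. Treatment: test compound, 48 hours, 5 concentrations. Analysis: linear interpolation between bracketing concentrations; unreached endpoints set to highest concentration. At the GI50, growth is halved. TGI denotes the concentration required for complete inhibition of growth.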

Legend:
Assay in all cases: inhibition of tumour cell growth, NCI panel, 48 h
[1] = tested on: RXF 393 renal
[2] = tested on: DU-145 prostate
[3] = tested on: PC-3 prostate
[4] = tested on: 786-0 renal
[5] = tested on: A549 NSCLC
[6] = tested on: NCI-H522 lung
[7] = tested on: SK-OV-3 ovarian
[8] = tested on: M14 melanoma
[9] = tested on: HCC-2998 colon
[10] = tested on: NCI-H226 lung

Compound | TGI [1] [µM] | TGI [2] [µM] | TGI [3] [µM] | TGI [4] [µM] | TGI [5] [µM] | TGI [6] [µM] | TGI [7] [µM] | TGI [8] [µM] | TGI [9] [µM] | TGI [10] [µM] | GI50 [1] [µM] | GI50 [2] [µM] | GI50 [3] [µM] | GI50 [10] [µM] | GI50 [5] [µM] | GI50 [7] [µM] | GI50 [8] [µM] | GI50 [9] [µM]
Nc1ncnc2c1ccn2C/C=C/CO | > 100 | > 100 | > 100 | > 100 | > 100 | > 100 | > 100 | > 100 | > 100 |  |  |  |  |  |  |  |  | 
[N-]=[N+]=CC(=O)OC(CCl)CCl | > 100 | > 100 | > 100 | > 100 |  | > 100 | > 100 |  | > 100 | > 100 |  |  |  |  |  |  |  | 
CC1(C)C=CC(=O)C(O)C(C)(C)C1=O (stereo not drawn) | > 100 | > 100 | > 100 | > 100 | > 100 | 89.4 | > 100 | > 100 |  | > 100 |  |  |  |  |  |  |  | 
CNc1[nH]c(=S)nc2sc3c(c12)CCCC3 | > 75 | > 75 | > 75 | > 75 |  | > 75 |  |  | > 75 | > 75 |  |  |  |  |  |  |  | 
Cc1ccnc(NC(=S)Nc2ccc([N+](=O)[O-])cc2)c1 | > 100 | > 100 | > 100 | > 100 |  |  | > 100 | > 100 | > 100 | > 100 |  |  |  |  |  |  |  | 
N#CC(c1ccccc1)N(CCOCCOCCN(C(=O)c1ccccc1)C(C#N)c1ccccc1)C(=O)c1ccccc1 (stereo not drawn) | > 100 | > 100 | > 100 | > 100 | > 100 |  | > 100 | > 100 | > 100 | > 100 |  |  |  |  |  |  |  | 
O=C(NN1C(=O)CS(=O)(=O)C1c1ccc(C(F)(F)F)cc1)c1ccncc1 (stereo not drawn) | > 100 |  |  |  | > 100 | > 100 | > 100 | > 100 | > 100 | > 100 |  |  |  |  |  |  |  | 
CC(C)(CO)CNc1nc(N)nc(Cl)c1/C=N/O | > 100 | > 100 | > 100 | > 100 | > 100 | > 100 |  |  | > 100 | > 100 |  |  |  |  |  |  |  | 
Cc1cc(C)nc(NC(=S)Nc2ccc([N+](=O)[O-])cc2)c1 | > 100 | > 100 | > 100 | > 100 |  |  |  |  | > 100 | > 100 |  |  |  |  |  |  |  | 
O=C(NCCCl)O/N=C/c1cccnc1 | > 100 |  |  |  | > 100 | > 100 | > 100 |  | > 100 | > 100 | > 100 |  |  |  |  |  |  | 
COc1cc2c(cc1OCCCCCN1CCN(c3ncnc4ccccc34)CC1)N=CC1CCCN1C2=O (stereo not drawn) | 0.0454 | 0.97 | 0.154 |  | 25.8 | 0.0269 | 0.379 | 0.128 | 0.0349 | 0.0479 | 0.0253 | 0.0271 | 0.0218 | 0.0203 | 0.0307 | 0.0334 | 0.032 | 0.0178
Cc1ccsc1/C=N/Nc1cnccn1 | > 100 | > 100 | > 100 | > 100 | > 100 |  | > 100 | > 100 | > 100 | > 100 |  |  |  |  |  |  |  | 
O[C@H]1[C@H](O)[C@@H](O)CN2CC[C@H](O)[C@H]12 | > 100 |  |  |  | > 100 | > 100 | > 100 |  | > 100 | > 100 |  |  |  |  |  |  |  | 
C=C(CN(C)C)C(=O)c1ccc(C(=O)C(=C)CN(C)C)cc1 | > 100 | > 100 |  | > 100 | > 100 | > 100 | > 100 | > 100 | > 100 | > 100 |  |  |  |  |  |  |  | 
CN(C)Cc1cc(C(=O)/C=C/c2ccc([N+](=O)[O-])cc2)cc(CN(C)C)c1O | 38.1 | 23 | 33.9 | 15.2 | 89 | 20.1 |  | 23.3 | 32.5 | 19.2 |  |  |  |  |  |  |  | 
Clc1sc(Cl)c2c1[C@@H](Cl)C[C@@H]2Br | > 100 | > 100 | > 100 | > 100 | > 100 | > 100 | > 100 | > 100 | > 100 |  |  |  |  |  |  |  |  | 
COc1cc(C=O)ccc1O |  | > 100 | > 100 | > 100 | > 100 | > 100 |  | > 100 | > 100 | > 100 |  |  |  |  |  |  |  | 
O=C(CN1C(=O)CC(c2ccccc2)(c2ccccc2)C1=O)N1CCN(CCO)CC1 | > 100 | > 100 | > 100 | > 100 | > 100 | > 100 | > 100 | > 100 | > 100 |  |  |  |  |  |  |  |  | 
COc1cc(C2c3cc4c(cc3[C@@H](Nc3ccccc3)C3COC(=O)[C@H]23)OCO4)cc(OC)c1O (stereo partly drawn) | 6.8 |  |  |  | 1.82 | 3.7 | 4.87 |  | 3.35 | 2.12 |  |  |  |  |  |  |  | 
Cc1cc(OP2(=O)NCc3ncccc3O2)ccc1Cl (stereo not drawn) | > 100 | > 100 | > 100 | > 100 | > 100 |  |  | > 100 | > 100 | > 100 |  |  |  |  |  |  |  | 
O=C1c2cccc3cccc(c23)C(=O)N1CCCNCCCCNCCCNCCCN1C(=O)c2cccc3cccc(c23)C1=O | 1.44 | 1.53 | 1.76 | 1.36 | 1.39 |  | 3.42 | 3.64 | 1.86 | 2.15 |  |  |  |  |  |  |  | 
CN1CC[C@]2(c3cccc(O)c3)CC(=O)/C(=C/c3ccccc3)[C@@H]1C2 | 4.18 | 17.5 | 7.74 | 7.12 | 13.2 | 11.2 |  | 12.1 | 7.16 | 31.9 |  |  |  |  |  |  |  | 
C=C(C)CNCCN | > 100 | > 100 | > 100 | > 100 | > 100 | > 100 |  | > 100 |  | > 100 |  |  |  |  |  |  |  | 
Nc1ncc2c(n1)-c1ccccc1OC2N1CCCC1 (stereo not drawn) | > 100 | > 100 | > 100 | > 100 | > 100 | > 100 | > 100 | > 100 |  | > 100 |  |  |  |  |  |  |  | 
